Counter-ions that a name gives are not always drawn. Like-named read-outs stand apart in the source and are kept apart here.
Tests used:
[1] = molecular target: T1, 3-hydroxy-3-methylglutaryl-coenzyme A reductase (Rattus norvegicus, UniProt P51639); assay: method A: in vitro method of H. J. Knauss et al., inhibition of 50% of the enzymatic activity; assay type: biochemical; settings: compounds tested as the sodium salts of their corresponding hydroxy acid forms
T1 construct: from tissue
T1 sequence (P51639 1-887): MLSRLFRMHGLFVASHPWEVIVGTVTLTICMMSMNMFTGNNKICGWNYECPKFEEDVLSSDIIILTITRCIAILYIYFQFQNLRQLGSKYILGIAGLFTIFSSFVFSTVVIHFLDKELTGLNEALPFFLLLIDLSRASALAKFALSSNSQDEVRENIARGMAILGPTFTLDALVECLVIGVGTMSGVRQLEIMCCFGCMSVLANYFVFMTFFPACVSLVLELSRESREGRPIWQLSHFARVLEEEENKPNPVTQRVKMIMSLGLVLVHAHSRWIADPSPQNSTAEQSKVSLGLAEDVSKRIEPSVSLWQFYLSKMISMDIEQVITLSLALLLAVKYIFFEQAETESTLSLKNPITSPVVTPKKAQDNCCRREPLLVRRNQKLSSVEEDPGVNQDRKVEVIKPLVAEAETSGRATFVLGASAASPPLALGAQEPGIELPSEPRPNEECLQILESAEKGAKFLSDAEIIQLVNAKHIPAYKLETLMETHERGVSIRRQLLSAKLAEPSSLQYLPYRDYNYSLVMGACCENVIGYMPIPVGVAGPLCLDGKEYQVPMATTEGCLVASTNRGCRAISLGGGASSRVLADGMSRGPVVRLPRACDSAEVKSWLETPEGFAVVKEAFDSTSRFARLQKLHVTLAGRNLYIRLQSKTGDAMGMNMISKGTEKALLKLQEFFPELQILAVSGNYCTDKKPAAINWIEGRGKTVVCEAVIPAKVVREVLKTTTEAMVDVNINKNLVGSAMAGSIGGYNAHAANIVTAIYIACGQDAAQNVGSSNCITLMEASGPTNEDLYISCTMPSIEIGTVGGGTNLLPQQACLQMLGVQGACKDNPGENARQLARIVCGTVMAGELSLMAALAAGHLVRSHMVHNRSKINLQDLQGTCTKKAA
Source text: The inhibitory activity of these compounds for the biosynthesis of cholesterol has been measured by two methods. The experimental method A was the in vitro method of H. J. Knauss, et al., J. Biol. Chem., 234, 2835 (1959) and the activity was expressed as the molar concentration IC50 (M) necessary for the inhibition of 50% of the enzymatic activity. The experimental method B was the method of A. A. Kandutsch, et al., J. Biol. Chem., 248, 8403 (1973) for measuring the quantity of ^14 C-cholesterol biosynthesis from acetic acid-^14 C in mouse L cells. The activity is expressed for inhibition of 50% of the biosynthesis of cholesterol.

[2] = molecular target: T1, 3-hydroxy-3-methylglutaryl-coenzyme A reductase; settings: method A; values of Belgian Pat. No. 867,421; read-out: IC50 as reported in the cited Belgian patent; cited from earlier work
mouse L cells = settings: method B, values of Belgian Pat. No. 867,421, read-out: IC50 (inhibition of 50% of the biosynthesis of cholesterol) as reported in the cited Belgian patent; cited from earlier work

Row | Structure (SMILES) | IC50 [1] [nM] | IC50 [2] [nM] | IC50 (mouse L cells) [nM]
1 | O=C(O)C[C@H](O)C[C@H](O)/C=C/c1c(Cl)cc(Cl)cc1-c1ccc(F)cc1 (relative stereo) [Example 43, (+)-(E)-(3R*,5S*)-7-(3,5-dichloro-4'-fluoro[1,1'-biphenyl]-2-yl)-3,5-dihydroxy-6-heptenoic acid, ammonium salt] | ~13 |  | 
2 | Cc1cc(C)cc(-c2cc(C)cc(C)c2C=CC2CC(O)CC(=O)O2)c1 (stereo not drawn) [6-[2-(3,3',5,5'-tetramethyl-[1,1'-biphenyl]-2-yl)ethenyl]-3,4,5,6-tetrahydro-4-hydroxy-2H-pyran-2-one] | 15 |  | 
3 | Cc1cc(C)c(C=CC2CC(O)CC(=O)O2)c(-c2ccc(F)c(C)c2)c1 (stereo not drawn) [6-[2-(4'-fluoro-3,3',5-trimethyl[1,1'-biphenyl]-2-yl)ethenyl]-3,4,5,6-tetrahydro-4-hydroxy-2H-pyran-2-one] | 7 |  | 
4 | O=C1C[C@@H](O)C[C@H](CCc2c(Cl)cc(Cl)cc2OCc2ccccc2)O1 [Example 14, (+)-Trans-6-[2-(2,4-dichloro-6-phenylmethoxyphenyl)ethyl]-3,4,5,6-tetrahydro-4-hydroxy-2H-pyran-2-one] | 68 |  | 
5 | CC[C@H](C)C(=O)O[C@H]1CCC=C2C=C[C@H](C)[C@H](CC[C@@H]3C[C@@H](O)CC(=O)O3)[C@H]21 [compactin] |  | ~8 | ~8
